Results from patent publication US8980829B2, “Aryl glycoside compound, preparation method and use thereof” (Shanghai Yingli Science and Technology Co., Ltd, priority 2011, dated 2015).

What was measured:
human SGLT2 = human SGLT2 (Homo sapiens (Human), UniProt P31639); experiment: Uptake assay of [14C]-AMG in Flp-In CHO cells stably expressing human SGLT2; assay type: cell-based; conditions: for IC50: [14C]-AMG uptake, Flp-In CHO cells expressing human SGLT2, 1 hour at 37° C., n = 1-4; for Selectivity (SGLT1/SGLT2): ratio SGLT1 IC50 / SGLT2 IC50;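 on all read-outs here: uptake in Na+ containing KRH buffer with compounds added in 1% DMSO, radioactivity of lysed cells read by scintillation counting, SGLT1 tested the same way in matching Flp-In CHO cells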
C57 mice = experiment: Urinary glucose excretion test; assay type: in vivo; conditions: adult C57 mice, 10 mg/kg, 24-hours urine collection, average of 6 mice
Protocol: Urinary Glucose Excretion Test
Adult C57 mice administered the test compound (10 mg/kg) were placed in metabolism cages for 24-hours urine collection, and measure the total volume of urine. When the urine samples had been collected, they were immediately frozen in a −20° C. refrigerator, followed by detecting the glucose concentration in urine. Finally, the total glucose in animal urine was calculated according to the total urine volume. It was then converted into urinary glucose excretion (mg) per 200 g of body weight within 24 hours according to the weight of mice.

human SGLT1 = human SGLT1 (Homo sapiens (Human), UniProt P13866); experiment: Uptake assay of [14C]-AMG in Flp-In CHO cells stably expressing human SGLT1; assay type: cell-based; conditions: [14C]-AMG uptake, Flp-In CHO cells expressing human SGLT1, 1 hour at 37° C., n = 1-4;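 further: uptake run in sodium-containing KRH buffer with compounds added in DMSO (1% final), cell radioactivity read by scintillation counting after lysis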
human SGLT1, sequence (P13866 whole entry): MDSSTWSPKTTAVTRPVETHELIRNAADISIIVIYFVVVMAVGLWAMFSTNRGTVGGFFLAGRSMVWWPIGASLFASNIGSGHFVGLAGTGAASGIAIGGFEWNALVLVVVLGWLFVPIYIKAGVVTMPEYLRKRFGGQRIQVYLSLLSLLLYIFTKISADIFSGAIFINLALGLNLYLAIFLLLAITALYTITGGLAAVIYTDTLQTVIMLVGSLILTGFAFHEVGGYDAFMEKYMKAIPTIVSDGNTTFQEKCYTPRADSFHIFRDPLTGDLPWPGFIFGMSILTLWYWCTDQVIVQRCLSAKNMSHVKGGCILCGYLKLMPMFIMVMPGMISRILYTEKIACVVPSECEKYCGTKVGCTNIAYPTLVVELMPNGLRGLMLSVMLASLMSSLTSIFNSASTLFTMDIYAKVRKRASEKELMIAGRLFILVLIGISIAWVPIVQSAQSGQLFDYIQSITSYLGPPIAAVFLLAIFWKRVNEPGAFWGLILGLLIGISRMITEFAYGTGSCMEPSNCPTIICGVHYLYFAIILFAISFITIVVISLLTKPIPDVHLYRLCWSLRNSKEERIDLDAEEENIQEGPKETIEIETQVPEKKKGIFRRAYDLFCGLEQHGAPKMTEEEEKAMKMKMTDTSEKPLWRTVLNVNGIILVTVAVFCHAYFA

human SGLT2, sequence (P31639 whole entry): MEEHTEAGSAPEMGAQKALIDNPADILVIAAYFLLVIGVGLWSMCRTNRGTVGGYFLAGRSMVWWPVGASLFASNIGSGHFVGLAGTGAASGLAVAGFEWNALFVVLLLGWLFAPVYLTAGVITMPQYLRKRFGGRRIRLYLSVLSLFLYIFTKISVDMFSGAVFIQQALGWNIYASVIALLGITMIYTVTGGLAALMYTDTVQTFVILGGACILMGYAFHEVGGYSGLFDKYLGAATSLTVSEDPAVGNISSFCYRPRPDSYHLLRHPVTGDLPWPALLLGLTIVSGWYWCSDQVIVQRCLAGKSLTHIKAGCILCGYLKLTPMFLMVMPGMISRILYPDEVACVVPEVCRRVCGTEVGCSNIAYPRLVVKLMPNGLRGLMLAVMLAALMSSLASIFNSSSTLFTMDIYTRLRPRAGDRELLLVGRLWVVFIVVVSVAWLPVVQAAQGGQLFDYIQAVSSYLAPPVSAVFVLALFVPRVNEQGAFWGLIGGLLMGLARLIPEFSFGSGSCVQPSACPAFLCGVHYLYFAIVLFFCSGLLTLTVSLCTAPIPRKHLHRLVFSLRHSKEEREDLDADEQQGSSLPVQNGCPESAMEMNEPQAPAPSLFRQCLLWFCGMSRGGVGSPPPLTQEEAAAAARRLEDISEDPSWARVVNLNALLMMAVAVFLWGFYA

SMILES | IC50 (human SGLT2) | Selectivity (SGLT1/SGLT2) (human SGLT2) | Urine Glucose Excretion (mg/200 g BW/24 h) (C57 mice) | IC50 (human SGLT1)
OC[C@H]1O[C@@H](c2ccc(Cl)c(Cc3ccc(OCC4(F)COC4)cc3)c2)[C@H](O)[C@@H](O)[C@@H]1O [Compound 12] | 6.5 nM | 320 | 1323 mg/200 g BW/24 h | 2080 nM
OC[C@H]1O[C@@H](c2ccc(Cl)c(Cc3ccc(OCC4CCO4)cc3)c2)[C@H](O)[C@@H](O)[C@@H]1O (single isomer, unassigned) [Compound 2] | 8.7 nM | 188 |  | 1640 nM
OC[C@H]1O[C@@H](c2ccc(Cl)c(Cc3ccc(OCC4CCO4)cc3)c2)[C@H](O)[C@@H](O)[C@@H]1O (single isomer, unassigned) [Compound 4] | 4.9 nM | 295 |  | 1450 nM
CN1CC(COc2ccc(Cc3cc([C@@H]4O[C@H](CO)[C@@H](O)[C@H](O)[C@H]4O)ccc3Cl)cc2)C1 [Compound 15] | 23.6 nM | 62 |  | 1460 nM
OC[C@H]1O[C@@H](c2ccc(Cl)c(Cc3ccc(OCC4(CF)COC4)cc3)c2)[C@H](O)[C@@H](O)[C@@H]1O [Compound 20] | 3.7 nM | 690 | 751 mg/200 g BW/24 h | 2550 nM
CC(=O)N1CC(COc2ccc(Cc3cc([C@@H]4O[C@H](CO)[C@@H](O)[C@H](O)[C@H]4O)ccc3Cl)cc2)C1 [Compound 17] | 6.4 nM | 73 | 180 mg/200 g BW/24 h | 469 nM
OC[C@H]1O[C@@H](c2ccc(Cl)c(Cc3ccc(OCCC4(F)COC4)cc3)c2)[C@H](O)[C@@H](O)[C@@H]1O [Compound 9] | 7.5 nM | 159 | 1079 mg/200 g BW/24 h | 1190 nM
CC(C)(C)OC(=O)N1CC(COc2ccc(Cc3cc([C@@H]4O[C@H](CO)[C@@H](O)[C@H](O)[C@H]4O)ccc3Cl)cc2)C1 [Compound 13] | 28.7 nM | 96 |  | 2760 nM
OC[C@H]1O[C@@H](c2ccc(Cl)c(Cc3ccc(OCC4CN(C5COC5)C4)cc3)c2)[C@H](O)[C@@H](O)[C@@H]1O [Compound 18] | 22 nM | 111 |  | 2450 nM
OC[C@H]1O[C@@H](c2ccc(Cl)c(Cc3ccc(CC4(F)COC4)cc3)c2)[C@H](O)[C@@H](O)[C@@H]1O [Compound 16] | 8.1 nM | 306 | 1441 mg/200 g BW/24 h | 2480 nM
OC[C@H]1O[C@@H](c2ccc(Cl)c(Cc3ccc(OCCCC4(F)COC4)cc3)c2)[C@H](O)[C@@H](O)[C@@H]1O [Compound 23] | 1.1 nM | 1089 | 1198 mg/200 g BW/24 h | 1200 nM
OC[C@H]1O[C@@H](c2ccc(Cl)c(Cc3ccc(CC4COC4)cc3)c2)[C@H](O)[C@@H](O)[C@@H]1O [Compound 6] | 9.6 nM | 312 | 735 mg/200 g BW/24 h | 3000 nM
OC[C@H]1O[C@@H](c2ccc(Cl)c(Cc3ccc(OCC4CCO4)cc3)c2)[C@H](O)[C@@H](O)[C@@H]1O (single isomer, unassigned) [Compound 3] | 11.4 nM | 201 |  | 2290 nM
CCOc1ccc(Cc2cc([C@@H]3O[C@H](CO)[C@@H](O)[C@H](O)[C@H]3O)c(OCC3CNC3)cc2Cl)cc1 [Compound 26] | 69.4 nM | 28 |  | 1950 nM
CCOc1ccc(Cc2cc([C@@H]3O[C@H](CO)[C@@H](O)[C@H](O)[C@H]3O)c(OCCCC3(F)COC3)cc2Cl)cc1 [Compound 25] | 12.3 nM | 1559 |  | 18800 nM
CC1(COc2ccc(Cc3cc([C@@H]4O[C@H](CO)[C@@H](O)[C@H](O)[C@H]4O)ccc3Cl)cc2)COC1 [Compound 5] | 8.3 nM | 95 | 1050 mg/200 g BW/24 h | 792 nM
OC[C@H]1O[C@@H](c2ccc(Cl)c(Cc3ccc(OCC4CNC4)cc3)c2)[C@H](O)[C@@H](O)[C@@H]1O [Compound 14] | 8.4 nM | 93 |  | 785 nM
OC[C@H]1O[C@@H](c2ccc(Cl)c(Cc3ccc(OCC4CN(c5ccc(F)cc5)C4)cc3)c2)[C@H](O)[C@@H](O)[C@@H]1O [Compound 19] | 97.2 nM | 21 |  | 1990 nM
OC[C@H]1O[C@@H](c2ccc(Cl)c(Cc3ccc(OCC4COC4)cc3)c2)[C@H](O)[C@@H](O)[C@@H]1O [Compound 1] | 5.6 nM | 471 | 1333 mg/200 g BW/24 h | 2640 nM
OC[C@H]1O[C@@H](c2ccc(Cl)c(Cc3ccc(CCC4COC4)cc3)c2)[C@H](O)[C@@H](O)[C@@H]1O [Compound 7] | 8.5 nM | 124 |  | 1060 nM
OC[C@H]1O[C@@H](c2ccc(Cl)c(Cc3ccc(OCCCC4COC4)cc3)c2)[C@H](O)[C@@H](O)[C@@H]1O [Compound 22] | 1.7 nM | 2911 |  | 4950 nM
OC[C@H]1O[C@@H](c2ccc(Cl)c(Cc3ccc(OCCC4CSC4)cc3)c2)[C@H](O)[C@@H](O)[C@@H]1O [Compound 10] | 7.4 nM | 176 | 740 mg/200 g BW/24 h | 1300 nM
[O-][S+]1CC(CCOc2ccc(Cc3cc([C@@H]4O[C@H](CO)[C@@H](O)[C@H](O)[C@H]4O)ccc3Cl)cc2)C1 (some centres unmarked) [Compound 11] | 6.8 nM | 150 |  | 1020 nM
CCOc1ccc(Cc2cc([C@@H]3O[C@H](CO)[C@@H](O)[C@H](O)[C@H]3O)c(OCC3(F)COC3)cc2Cl)cc1 [Compound 24] | 12 nM | 1424 |  | 17100 nM
OC[C@H]1O[C@@H](c2ccc(Cl)c(Cc3ccc(OCCC4COC4)cc3)c2)[C@H](O)[C@@H](O)[C@@H]1O [Compound 8] | 1.7 nM | 547 |  | 930 nM
OC[C@H]1O[C@@H](c2ccc(Cl)c(Cc3ccc(OC4CCOC4)cc3)c2)[C@H](O)[C@@H](O)[C@@H]1O (some centres unmarked) [EMPAGLIFLOZIN, reference compound] |  |  | 1197 mg/200 g BW/24 h | 
